Source: patent US20250197420A1, “MACROCYCLIC COMPOUNDS, COMPOSITIONS, AND METHODS OF USING THEREOF” (Sionna Therapeutics Inc., priority 2022, published 2025)

Columns and labels:
[1] = system: Primary human bronchial epithelial cells from a ΔF508 homozygous CF donor (CF-HBE cells); experiment: TECC24 recording of CFTR-mediated transepithelial chloride transport, AUC fold over benchmark VX-809 @10 μM; assay type: cell-based; details: 48 hours incubation, AUC of forskolin-stimulated IEQ
Outline: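 CF-HBE cells on inserts were treated with compound for 48 h at 36.5 °C, then recorded in current-clamp with benzamil 10 μM, forskolin 10 μM, and finally CFTR inhibitor-172 20 μM in pH 7.4 Hepes saline. Equivalent Cl− current AUC between forskolin and inhibitor addition is expressed as a ratio to VX-809 AUC: A <3, B 3–6, C 6–20.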

[2] = molecular target: T1, Purified recombinant NBD1 (Homo sapiens, UniProt P13569); experiment: Aggregation analysis using differential static light scattering (DSLS): thermal stability of NBD1; assay type: binding; details: NBD1 0.2 mg/ml; Tagg of compound well minus average Tagg of DMSO control wells
T1 construct: Purified recombinant NBD1 was produced using previously described methods; made in house
T1 sequence (P13569 423-646 limits assumed): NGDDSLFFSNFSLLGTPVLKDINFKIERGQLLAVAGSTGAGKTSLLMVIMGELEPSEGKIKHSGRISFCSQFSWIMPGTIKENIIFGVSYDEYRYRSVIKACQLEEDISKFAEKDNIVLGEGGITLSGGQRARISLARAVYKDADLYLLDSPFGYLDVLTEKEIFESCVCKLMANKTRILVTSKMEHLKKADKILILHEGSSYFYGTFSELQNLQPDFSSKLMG
Outline: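 Recombinant NBD1 at 0.2 mg/ml in Tris/NaCl/MgCl2 buffer with 2 mM ATP, 2 mM DTT, 1% glycerol, pH 7.6, was incubated with compound and heated at 1 °C/min to 70 °C while static light scattering was monitored. Tagg was taken from the curve inflection point and reported as ΔTagg relative to DMSO controls.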

| Compound | TECC (test agent AUC divided by VX-809 AUC) [1] | DSLS (ΔTagg) [2] |
| --- | --- | --- |
| O=C(O)CCc1cccc(C2CCCCCNC(=O)OCc3c(c(F)cc4[nH]ccc34)Oc3ccc(F)c(c3)-c3ncc2[nH]3)c1F (stereo not drawn) [Compound 85, 3-[3-(23,29-Difluoro-13-oxo-14,25-dioxa-3,12,20,31-tetrazapentacyclo[24.3.1.12,5.016,24.017,21]hentriaconta-1(30),2,4,16,18,21,23,26,28-nonaen-6-yl)-2-fluoro-phenyl]propanoic acid] | B (a value between 3 and 6 is marked “B”) | C (a value greater than 10 °C and less than or equal to 25 °C is marked “C”) |
| CC1(c2cccc(CCC(=O)O)c2)CCCCNC(=O)OCCc2c(c(F)cc3[nH]ccc23)Oc2ccc(F)c(c2)-c2ncc1[nH]2 (stereo not drawn) [Compound 86, 3-[3-(23,29-Difluoro-6-methyl-12-oxo-13,25-dioxa-3,11,20,31-tetrazapentacyclo[24.3.1.12,5.016,24.017,21]hentriaconta-1(30),2,4,16(24),17(21),18,22,26,28-nonaen-6-yl)phenyl]propanoic acid] | C (a value between 6 and 20 is marked “C”) | C (a value greater than 10 °C and less than or equal to 25 °C is marked “C”) |
| CC1CCC(C)(c2cccc(CCC(=O)O)c2)c2cnc([nH]2)-c2cc(ccc2F)Oc2c(F)cc3[nH]ccc3c2CCNC(=O)OC1 (stereo not drawn) [Compound 87, 3-[3-(23,29-Difluoro-6,9-dimethyl-12-oxo-11,25-dioxa-3,13,20,31-tetrazapentacyclo[24.3.1.12,5.016,24.017,21]hentriaconta-1(30),2,4,16(24),17(21),18,22,26,28-nonaen-6-yl)phenyl]propanoic acid] | B (a value between 3 and 6 is marked “B”) | C (a value greater than 10 °C and less than or equal to 25 °C is marked “C”) |
| CC1(C)CCCCC(C)(c2cccc(CCC(=O)O)c2)c2cnc([nH]2)-c2cc(ccc2F)Oc2c(F)cc3[nH]ccc3c2COC(=O)N1 (stereo not drawn) [Compound 88, 3-[3-(23,29-Difluoro-6,11,11-trimethyl-13-oxo-14,25-dioxa-3,12,20,31-tetrazapentacyclo[24.3.1.12,5.016,24.017,21]hentriaconta-1(30),2,4,16,18,21,23,26,28-nonaen-6-yl)phenyl]propanoic acid] | B (a value between 3 and 6 is marked “B”) | C (a value greater than 10 °C and less than or equal to 25 °C is marked “C”) |
| CC1(C)CCCC(C)(c2cccc(CCC(=O)O)c2)c2cnc([nH]2)-c2cc(ccc2F)Oc2c(F)cc3[nH]ccc3c2CNC(=O)OC1 (stereo not drawn) [Compound 89, 3-[3-(23,29-Difluoro-6,10,10-trimethyl-13-oxo-12,25-dioxa-3,14,20,31-tetrazapentacyclo[24.3.1.12,5.016,24.017,21]hentriaconta-1(30),2,4,16,18,21,23,26,28-nonaen-6-yl)phenyl]propanoic acid] | B (a value between 3 and 6 is marked “B”) | C (a value greater than 10 °C and less than or equal to 25 °C is marked “C”) |
| CC1(C)CCCC(C)(c2cccc(CCC(=O)O)c2)c2nnc([nH]2)-c2cc(ccc2F)Oc2c(F)cc3[nH]ccc3c2COC(=O)NC1 (stereo not drawn) [Compound 90, 3-[3-(23,29-Difluoro-6,10,10-trimethyl-13-oxo-14,25-dioxa-3,4,12,20,31-pentazapentacyclo[24.3.1.12,5.016,24.017,21]hentriaconta-1(30),2,4,16(24),17(21),18,22,26,28-nonaen-6-yl)phenyl]propanoic acid] | B (a value between 3 and 6 is marked “B”) | C (a value greater than 10 °C and less than or equal to 25 °C is marked “C”) |
| CC1(C)CCCC(C)(c2ccccc2)c2nnc([nH]2)-c2cc(ccc2F)Oc2c(F)cc3[nH]ccc3c2COC(=O)NC1 (stereo not drawn) [Compound 91, 23,29-Difluoro-6,10,10-trimethyl-6-phenyl-14,25-dioxa-3,4,12,20,31-pentazapentacyclo[24.3.1.12,5.016,24.017,21]hentriaconta-1(30),2,4,16(24),17(21),18,22,26,28-nonaen-13-one] | A (a TECC value less than 3 is marked “A”) | B (a value above 5 °C and less than or equal to 10 °C is marked “B”) |
| CC1(C)CCC(C)(c2cccc(CCC(=O)O)c2)c2cnc([nH]2)-c2cc(ccc2F)Oc2c(F)cc3[nH]ccc3c2CCOC(=O)NC1 (stereo not drawn) [Compound 92, 3-[3-(23,29-Difluoro-6,9,9-trimethyl-12-oxo-13,25-dioxa-3,11,20,31-tetrazapentacyclo[24.3.1.12,5.016,24.017,21]hentriaconta-1(30),2,4,16(24),17(21),18,22,26,28-nonaen-6-yl)phenyl]propanoic acid] | C (a value between 6 and 20 is marked “C”) | C (a value greater than 10 °C and less than or equal to 25 °C is marked “C”) |
| CC1(C)CCCCC(C)(c2ccccc2)c2cnc([nH]2)-c2cc(ccc2F)Oc2c(F)cc3[nH]ccc3c2COC(=O)N1 (stereo not drawn) [Compound 94, 23,29-Difluoro-6,11,11-trimethyl-6-phenyl-14,25-dioxa-3,12,20,31-tetrazapentacyclo[24.3.1.12,5.016,24.017,21]hentriaconta-1(30),2,4,16,18,21,23,26,28-nonaen-13-one] | A (a TECC value less than 3 is marked “A”) | B (a value above 5 °C and less than or equal to 10 °C is marked “B”) |
| Cn1nc2nc1-c1cc(ccc1F)Oc1c(F)cc3[nH]ccc3c1COC(=O)NC(C)(C)CCCCC2(C)c1ccccc1 (stereo not drawn) [Compound 102, 23,29-difluoro-3,6,11,11-tetramethyl-6-phenyl-14,25-dioxa-3,4,12,20,31-pentazapentacyclo[24.3.1.12,5.016,24.017,21]hentriaconta-1(30),2(31),4,16,18,21,23,26,28-nonaen-13-one] | B (a value between 3 and 6 is marked “B”) | B (a value above 5 °C and less than or equal to 10 °C is marked “B”) |
| CC(Cc1cccc(C2(C)CCCCC(C)(C)N(C)C(=O)OCc3c(c(F)cc4[nH]ccc34)Oc3ccc(F)c(c3)-c3nc2nn3C)c1)C(=O)O (stereo not drawn) [Compound 103, 3-[3-(23,29-difluoro-3,6,11,11,12-pentamethyl-13-oxo-14,25-dioxa-3,4,12,20,31-pentazapentacyclo[24.3.1.12,5.016,24.017,21]hentriaconta-1(30),2(31),4,16,18,21,23,26,28-nonaen-6-yl)phenyl]-2-methyl-propanoic acid] | A (a TECC value less than 3 is marked “A”) | C (a value greater than 10 °C and less than or equal to 25 °C is marked “C”) |
| CC1(c2cccc(CCC(=O)O)c2)CCCC(O)CNC(=O)CCc2c(c(F)cc3[nH]ccc23)Oc2ccc(F)c(c2)-c2ncc1[nH]2 (stereo not drawn) [Compound 106, 3-[3-(23,29-Difluoro-10-hydroxy-6-methyl-13-oxo-25-oxa-3,12,20,31-tetrazapentacyclo[24.3.1.12,5.016,24.017,21]hentriaconta-1(30),2,4,16,18,21,23,26,28-nonaen-6-yl)phenyl]propanoic acid] | B (a value between 3 and 6 is marked “B”) | C (a value greater than 10 °C and less than or equal to 25 °C is marked “C”) |
| CC1(c2cccc(CCC(=O)O)c2)CCCC(=O)CNC(=O)CCc2c(c(F)cc3[nH]ccc23)Oc2ccc(F)c(c2)-c2ncc1[nH]2 (stereo not drawn) [Compound 107, 3-[3-(23,29-Difluoro-6-methyl-10,13-dioxo-25-oxa-3,12,20,31-tetrazapentacyclo[24.3.1.12,5.016,24.017,21]hentriaconta-1(30),2,4,16,18,21,23,26,28-nonaen-6-yl)phenyl]propanoic acid] | B (a value between 3 and 6 is marked “B”) | C (a value greater than 10 °C and less than or equal to 25 °C is marked “C”) |
| CC1(c2cccc(CCC(=O)O)c2)CCCCCC(O)CNC(=O)Cc2c(c(F)cc3[nH]ccc23)Oc2ccc(F)c(c2)-c2ncc1[nH]2 (stereo not drawn) [Compound 108, 3-[3-(24,30-Difluoro-12-hydroxy-6-methyl-15-oxo-26-oxa-3,14,21,32-tetrazapentacyclo[25.3.1.12,5.017,25.018,22]dotriaconta-1(31),2,4,17,19,22,24,27,29-nonaen-6-yl)phenyl]propanoic acid] | A (a TECC value less than 3 is marked “A”) | C (a value greater than 10 °C and less than or equal to 25 °C is marked “C”) |
| CC1(c2cccc(CCC(=O)O)c2)CCCCCC(=O)CNC(=O)Cc2c(c(F)cc3[nH]ccc23)Oc2ccc(F)c(c2)-c2ncc1[nH]2 (stereo not drawn) [Compound 109, 3-[3-(24,30-Difluoro-6-methyl-12,15-dioxo-26-oxa-3,14,21,32-tetrazapentacyclo[25.3.1.12,5.017,25.018,22]dotriaconta-1(31),2,4,17,19,22,24,27,29-nonaen-6-yl)phenyl]propanoic acid] | B (a value between 3 and 6 is marked “B”) | C (a value greater than 10 °C and less than or equal to 25 °C is marked “C”) |
